Data reported in paper PMC11314561, “Design and Synthesis of Novel Aminoindazole-pyrrolo[2,3-b]pyridine Inhibitors of IKKα That Selectively Perturb Cellular Non-Canonical NF-κB Signalling” (Molecules, 2024).

What was measured:
Assay in all cases: kinase panel
Assay type in all cases: biochemical
ARK5(h) = target: T1, ARK5(h) (Homo sapiens, UniProt O60285)
T1 sequence (O60285 1-661): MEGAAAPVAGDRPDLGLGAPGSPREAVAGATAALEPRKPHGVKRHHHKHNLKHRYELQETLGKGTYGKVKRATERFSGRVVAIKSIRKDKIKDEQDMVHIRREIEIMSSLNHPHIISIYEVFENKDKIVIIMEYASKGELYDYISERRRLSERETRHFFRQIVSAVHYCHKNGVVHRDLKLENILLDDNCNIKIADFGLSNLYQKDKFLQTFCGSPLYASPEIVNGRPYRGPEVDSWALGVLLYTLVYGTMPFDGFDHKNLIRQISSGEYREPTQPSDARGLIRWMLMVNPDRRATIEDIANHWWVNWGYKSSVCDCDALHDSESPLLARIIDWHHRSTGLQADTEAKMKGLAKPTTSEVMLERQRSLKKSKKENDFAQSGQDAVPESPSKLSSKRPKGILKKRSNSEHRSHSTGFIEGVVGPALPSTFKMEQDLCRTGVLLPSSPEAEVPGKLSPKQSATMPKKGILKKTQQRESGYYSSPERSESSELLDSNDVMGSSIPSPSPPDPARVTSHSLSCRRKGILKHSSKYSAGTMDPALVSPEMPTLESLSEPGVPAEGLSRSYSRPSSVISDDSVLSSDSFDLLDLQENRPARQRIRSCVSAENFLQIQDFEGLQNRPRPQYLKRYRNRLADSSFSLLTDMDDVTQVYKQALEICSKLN
In short: (§1)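 Values are percent inhibition from kinome-wide profiling of three series compounds across 231 kinases, with a structurally similar analogue tested on only 98 selected kinases.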

CDK1/cyclinB(h) = CDK1/cyclinB(h) (Homo sapiens, UniProt P06493)
In short: as §1

CDK9/cyclin T1(h) = CDK9/cyclin T1(h) (Homo sapiens, UniProt P50750)
In short: as §1

CHK2(h) = CHK2(h) (Homo sapiens, UniProt O96017)
In short: as §1

GSK3β(h) = GSK3β(h) (Homo sapiens, UniProt P49841)
In short: as §1

Haspin(h) = target: T2, Haspin(h) (Homo sapiens, UniProt Q8TF76)
T2 sequence (Q8TF76 1-798): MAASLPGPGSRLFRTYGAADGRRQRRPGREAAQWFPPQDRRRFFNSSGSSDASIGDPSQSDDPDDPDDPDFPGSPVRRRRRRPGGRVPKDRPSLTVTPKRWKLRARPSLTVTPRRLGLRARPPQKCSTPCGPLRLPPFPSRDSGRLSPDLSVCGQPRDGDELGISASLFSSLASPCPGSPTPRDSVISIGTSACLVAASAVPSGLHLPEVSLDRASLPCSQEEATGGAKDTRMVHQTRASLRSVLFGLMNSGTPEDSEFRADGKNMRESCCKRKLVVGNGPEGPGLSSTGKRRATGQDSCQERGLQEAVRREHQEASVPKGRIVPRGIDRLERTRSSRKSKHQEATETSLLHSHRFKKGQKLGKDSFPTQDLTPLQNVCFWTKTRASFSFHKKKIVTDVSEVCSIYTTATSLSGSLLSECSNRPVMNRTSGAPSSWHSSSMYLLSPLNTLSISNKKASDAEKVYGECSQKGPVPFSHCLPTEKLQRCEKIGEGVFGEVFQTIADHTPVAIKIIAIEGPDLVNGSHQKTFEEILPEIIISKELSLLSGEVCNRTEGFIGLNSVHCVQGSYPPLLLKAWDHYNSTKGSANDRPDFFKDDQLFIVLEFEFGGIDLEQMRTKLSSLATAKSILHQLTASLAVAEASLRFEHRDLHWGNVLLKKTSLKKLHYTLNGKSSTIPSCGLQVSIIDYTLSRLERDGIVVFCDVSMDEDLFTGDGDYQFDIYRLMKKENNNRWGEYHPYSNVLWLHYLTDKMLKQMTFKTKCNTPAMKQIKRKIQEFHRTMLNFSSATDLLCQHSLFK
In short: as §1

MAPKAP-K2(h) = MAPKAP-K2(h) (Homo sapiens, UniProt P49137)
In short: as §1

MEK1(h) = MEK1(h) (Homo sapiens, UniProt Q02750)
In short: as §1

TAO1(h) = target: T3, TAO1(h) (Homo sapiens, UniProt Q7L7X3)
T3 sequence (Q7L7X3 1-1001): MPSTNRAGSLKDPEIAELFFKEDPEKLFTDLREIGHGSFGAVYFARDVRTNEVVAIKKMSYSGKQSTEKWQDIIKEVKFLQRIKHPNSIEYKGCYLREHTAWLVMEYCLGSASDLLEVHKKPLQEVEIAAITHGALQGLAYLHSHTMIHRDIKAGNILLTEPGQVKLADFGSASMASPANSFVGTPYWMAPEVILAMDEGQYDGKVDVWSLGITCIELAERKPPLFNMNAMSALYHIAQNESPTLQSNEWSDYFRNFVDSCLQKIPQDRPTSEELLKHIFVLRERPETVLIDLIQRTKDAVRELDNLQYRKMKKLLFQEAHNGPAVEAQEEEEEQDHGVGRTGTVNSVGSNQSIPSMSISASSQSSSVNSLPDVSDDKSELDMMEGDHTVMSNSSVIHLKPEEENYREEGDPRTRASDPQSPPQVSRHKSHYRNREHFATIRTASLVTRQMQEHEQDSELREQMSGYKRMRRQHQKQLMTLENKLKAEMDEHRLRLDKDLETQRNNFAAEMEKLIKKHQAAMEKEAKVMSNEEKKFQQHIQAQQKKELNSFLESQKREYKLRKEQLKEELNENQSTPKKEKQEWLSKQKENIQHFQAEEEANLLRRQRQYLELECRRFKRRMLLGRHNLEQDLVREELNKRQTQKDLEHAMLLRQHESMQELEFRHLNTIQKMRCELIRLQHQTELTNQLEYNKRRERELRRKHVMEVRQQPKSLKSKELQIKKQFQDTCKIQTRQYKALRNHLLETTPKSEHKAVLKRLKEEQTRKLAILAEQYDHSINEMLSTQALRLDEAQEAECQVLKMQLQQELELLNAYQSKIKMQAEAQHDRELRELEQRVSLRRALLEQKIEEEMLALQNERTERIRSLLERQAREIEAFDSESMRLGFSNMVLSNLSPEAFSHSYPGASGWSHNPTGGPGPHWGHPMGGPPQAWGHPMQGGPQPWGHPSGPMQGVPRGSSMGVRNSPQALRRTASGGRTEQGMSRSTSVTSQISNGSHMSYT
In short: as §1

Chain of CDK9/cyclin T1(h) (P50750 whole entry): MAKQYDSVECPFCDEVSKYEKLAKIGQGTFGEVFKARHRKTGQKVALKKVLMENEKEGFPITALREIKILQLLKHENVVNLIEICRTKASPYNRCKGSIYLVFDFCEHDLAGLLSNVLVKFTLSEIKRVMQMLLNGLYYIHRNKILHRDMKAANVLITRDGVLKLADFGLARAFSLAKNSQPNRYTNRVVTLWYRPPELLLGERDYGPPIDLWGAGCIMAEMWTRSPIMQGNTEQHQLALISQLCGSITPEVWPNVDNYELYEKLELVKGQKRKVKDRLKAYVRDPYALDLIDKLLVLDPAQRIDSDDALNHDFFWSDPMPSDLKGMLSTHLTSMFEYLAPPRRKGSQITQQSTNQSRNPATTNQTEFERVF
Chain of CDK9/cyclin T1(h) (O60563 whole entry partner): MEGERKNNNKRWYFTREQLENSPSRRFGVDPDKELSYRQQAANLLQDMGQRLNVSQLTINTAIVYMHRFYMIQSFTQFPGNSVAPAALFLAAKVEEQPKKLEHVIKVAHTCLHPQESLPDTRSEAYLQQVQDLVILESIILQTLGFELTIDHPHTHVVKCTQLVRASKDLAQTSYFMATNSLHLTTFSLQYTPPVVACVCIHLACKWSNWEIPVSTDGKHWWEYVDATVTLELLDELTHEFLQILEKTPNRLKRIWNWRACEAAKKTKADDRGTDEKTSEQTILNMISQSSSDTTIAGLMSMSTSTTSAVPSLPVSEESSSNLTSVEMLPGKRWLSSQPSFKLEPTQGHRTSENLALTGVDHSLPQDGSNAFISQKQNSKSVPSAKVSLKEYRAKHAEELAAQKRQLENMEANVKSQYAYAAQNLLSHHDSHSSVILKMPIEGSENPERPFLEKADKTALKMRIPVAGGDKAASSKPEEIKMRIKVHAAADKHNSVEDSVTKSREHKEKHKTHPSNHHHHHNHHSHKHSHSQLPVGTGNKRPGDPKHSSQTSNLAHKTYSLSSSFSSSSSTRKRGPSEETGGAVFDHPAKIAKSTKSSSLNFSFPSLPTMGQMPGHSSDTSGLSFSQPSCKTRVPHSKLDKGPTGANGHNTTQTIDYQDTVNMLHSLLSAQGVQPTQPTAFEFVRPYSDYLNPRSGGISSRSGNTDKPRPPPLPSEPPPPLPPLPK
Chain of MAPKAP-K2(h) (P49137 whole entry): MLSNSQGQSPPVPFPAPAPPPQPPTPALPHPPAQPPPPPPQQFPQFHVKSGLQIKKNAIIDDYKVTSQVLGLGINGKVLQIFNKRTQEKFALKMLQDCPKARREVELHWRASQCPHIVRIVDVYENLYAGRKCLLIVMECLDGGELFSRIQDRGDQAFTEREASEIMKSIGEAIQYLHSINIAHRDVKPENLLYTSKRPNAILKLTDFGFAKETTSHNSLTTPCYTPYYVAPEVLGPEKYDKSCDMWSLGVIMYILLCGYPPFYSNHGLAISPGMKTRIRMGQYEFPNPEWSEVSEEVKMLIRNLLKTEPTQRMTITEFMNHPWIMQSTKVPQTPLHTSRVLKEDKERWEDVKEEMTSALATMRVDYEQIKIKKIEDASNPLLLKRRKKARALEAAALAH
Chain of MEK1(h) (Q02750 whole entry): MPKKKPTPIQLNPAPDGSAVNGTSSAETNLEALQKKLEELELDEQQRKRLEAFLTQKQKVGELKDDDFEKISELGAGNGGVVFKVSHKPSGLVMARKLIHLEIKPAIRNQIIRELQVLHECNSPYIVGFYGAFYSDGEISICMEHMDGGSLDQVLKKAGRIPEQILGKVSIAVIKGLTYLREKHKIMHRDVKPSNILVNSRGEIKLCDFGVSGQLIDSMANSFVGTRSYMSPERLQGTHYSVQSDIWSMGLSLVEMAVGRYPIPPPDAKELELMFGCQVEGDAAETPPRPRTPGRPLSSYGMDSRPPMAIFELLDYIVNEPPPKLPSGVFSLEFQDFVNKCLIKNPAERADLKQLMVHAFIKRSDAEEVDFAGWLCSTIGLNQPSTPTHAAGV
Chain of CHK2(h) (O96017 whole entry): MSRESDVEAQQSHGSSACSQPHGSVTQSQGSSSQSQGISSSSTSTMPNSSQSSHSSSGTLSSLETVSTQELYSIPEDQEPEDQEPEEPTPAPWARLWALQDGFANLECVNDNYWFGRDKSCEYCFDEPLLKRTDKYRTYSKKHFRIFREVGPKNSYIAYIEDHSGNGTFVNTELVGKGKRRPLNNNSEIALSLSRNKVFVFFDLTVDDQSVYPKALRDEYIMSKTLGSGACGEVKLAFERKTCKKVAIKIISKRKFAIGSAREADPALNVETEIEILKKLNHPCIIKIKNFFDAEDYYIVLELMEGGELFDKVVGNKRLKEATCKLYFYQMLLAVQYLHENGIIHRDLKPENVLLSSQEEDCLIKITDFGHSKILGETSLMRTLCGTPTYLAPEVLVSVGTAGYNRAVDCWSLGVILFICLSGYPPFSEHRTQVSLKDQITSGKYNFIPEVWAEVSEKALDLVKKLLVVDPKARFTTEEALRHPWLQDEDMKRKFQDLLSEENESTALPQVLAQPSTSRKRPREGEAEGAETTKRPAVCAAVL
Chain of CDK1/cyclinB(h) (P06493 whole entry): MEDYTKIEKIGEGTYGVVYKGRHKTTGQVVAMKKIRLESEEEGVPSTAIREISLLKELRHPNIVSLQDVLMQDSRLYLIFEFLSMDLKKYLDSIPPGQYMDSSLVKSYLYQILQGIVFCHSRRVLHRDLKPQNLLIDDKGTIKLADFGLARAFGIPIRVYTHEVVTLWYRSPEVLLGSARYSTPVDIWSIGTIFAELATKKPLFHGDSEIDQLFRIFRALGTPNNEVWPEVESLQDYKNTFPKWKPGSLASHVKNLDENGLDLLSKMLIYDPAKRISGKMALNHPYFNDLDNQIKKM
Chain of CDK1/cyclinB(h) (P14635 whole entry partner): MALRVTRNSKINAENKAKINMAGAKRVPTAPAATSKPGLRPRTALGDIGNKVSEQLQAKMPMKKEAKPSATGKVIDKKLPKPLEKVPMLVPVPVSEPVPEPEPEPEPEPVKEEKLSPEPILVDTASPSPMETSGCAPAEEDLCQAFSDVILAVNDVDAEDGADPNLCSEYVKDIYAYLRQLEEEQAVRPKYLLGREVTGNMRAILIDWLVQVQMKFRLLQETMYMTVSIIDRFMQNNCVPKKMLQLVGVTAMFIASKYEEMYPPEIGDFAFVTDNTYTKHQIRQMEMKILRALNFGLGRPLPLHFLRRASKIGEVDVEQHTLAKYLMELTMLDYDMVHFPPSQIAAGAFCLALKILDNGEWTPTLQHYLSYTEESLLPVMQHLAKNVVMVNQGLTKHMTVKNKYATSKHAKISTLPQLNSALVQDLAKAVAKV
Chain of GSK3β(h) (P49841 whole entry): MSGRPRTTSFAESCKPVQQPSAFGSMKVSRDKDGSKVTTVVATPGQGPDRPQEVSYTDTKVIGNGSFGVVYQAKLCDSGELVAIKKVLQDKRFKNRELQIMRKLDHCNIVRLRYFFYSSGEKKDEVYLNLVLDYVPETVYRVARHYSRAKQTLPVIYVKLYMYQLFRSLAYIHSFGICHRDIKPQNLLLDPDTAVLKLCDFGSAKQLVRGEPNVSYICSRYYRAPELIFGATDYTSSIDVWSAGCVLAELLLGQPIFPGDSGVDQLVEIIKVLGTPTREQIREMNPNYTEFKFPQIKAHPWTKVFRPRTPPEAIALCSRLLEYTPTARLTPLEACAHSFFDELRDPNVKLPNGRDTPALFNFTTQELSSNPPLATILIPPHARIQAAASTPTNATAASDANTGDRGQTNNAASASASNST

| inhibition at 1 µM (ARK5(h)) [%] | inhibition at 1 µM (CDK1/cyclinB(h)) [%] | inhibition at 1 µM (CDK9/cyclin T1(h)) [%] | inhibition at 1 µM (CHK2(h)) [%] | inhibition at 1 µM (GSK3β(h)) [%] | inhibition at 1 µM (Haspin(h)) [%] | inhibition at 1 µM (MAPKAP-K2(h)) [%] | inhibition at 1 µM (MEK1(h)) [%] | inhibition at 1 µM (TAO1(h)) [%] | SMILES |
| --- | --- | --- | --- | --- | --- | --- | --- | --- | --- |
| 87 | 101 | 98 | 28 | 92 | 101 | 38 | 8 | 73 | Nc1n[nH]c2ccc(-c3ccnc4[nH]c(-c5ccccc5)cc34)cc12 [Compound 4] |
| 33 | 77 | 98 | 13 | 57 | 94 | -3 | 0 | 16 | Nc1n[nH]c2ccc(-c3ccnc4[nH]c(-c5cccc(OCc6ccccc6)c5)cc34)cc12 [Compound 5r [SU1261]] |
| 3 | 58 | 99 | -5 | 5 | 92 | 1 | 8 | 5 | Nc1n[nH]c2ccc(-c3ccnc4[nH]c(-c5ccnc(OCc6ccccc6)c5)cc34)cc12 [Compound 6g [SU1349]] |
